`CC(=O)OC[C@@]1(C(=O)O)CC[C@]2(C)C(CCC3[C@@]4(C)CC[C@H](OC(C)=O)C(C)(C)C4CC[C@]32C)C1=O` (stereo partly drawn) [(7), 3β,28-Diacetoxy-18-oxo-19,20,21,29,30-pentanorlupan-22-oic Acid] showed a melting point of 142 to 144 °C.
